From ChEMBL document CHEMBL5154926, “Discovery of a Novel Series of Imipridone Compounds as Homo sapiens Caseinolytic Protease P Agonists with Potent Antitumor Activities In Vitro and In Vivo” (J Med Chem, 2022)
Active and inactive are the calls of the source. No cut-off for these calls is given here.

Columns and labels:
[1] = Antiproliferative activity against rat H9c2 cells incubated for 48 hrs by CCK-8 assay; type: toxicity, cell-based
[2] = Antiproliferative activity against human HEK293 cells incubated for 48 hrs by CCK-8 assay; type: toxicity, cell-based
HCT-116 [3] = assay: cells; details: Homo sapiens, HCT-116, 48 h
Description: Antiproliferative activity against human HCT-116 cells incubated for 48 hrs by CCK-8 assay

DLD-1 = assay: cells; details: Homo sapiens, DLD-1, 48 h
Description: Antiproliferative activity against human DLD-1 cells incubated for 48 hrs by CCK-8 assay

U-251 = assay: Antiproliferative activity against human U-251 cells incubated for 48 hrs by CCK-8 assay; type: functional, cell-based; details: U-251, 48 h
Raji = assay: Antiproliferative activity against human Raji cells incubated for 48 hrs by CCK-8 assay; type: functional, cell-based
HCT-15 = assay: cells; details: Homo sapiens, HCT-15, 48 h
Description: Antiproliferative activity against human HCT-15 cells incubated for 48 hrs by CCK-8 assay

HT-29 = assay: cells; details: Homo sapiens, HT-29, 48 h
Description: Antiproliferative activity against human HT-29 cells incubated for 48 hrs by CCK-8 assay

SW480 = assay: cells; details: Homo sapiens, SW480, 48 h
Description: Antiproliferative activity against human SW480 cells incubated for 48 hrs by CCK-8 assay

SW-620 = assay: cells; details: Homo sapiens, SW-620, 48 h
Description: Antiproliferative activity against human SW-620 cells incubated for 48 hrs by CCK-8 assay

HCT-116 [4] = assay: Potency index, ratio of ONC201 IC50 to test compound IC50 for antiproliferative activity against human HCT-116 cells by CCK-8 assay; type: functional
MDA-MB-231 = assay: Antiproliferative activity against human MDA-MB-231 cells incubated for 48 hrs by CCK-8 assay; type: functional, cell-based; details: MDA-MB-231, 48 h
A549 = assay: Antiproliferative activity against human A549 cells incubated for 48 hrs by CCK-8 assay; type: functional, cell-based; details: A549, 48 h
[5] = target: T1, ATP-dependent Clp protease proteolytic subunit, mitochondrial (Homo sapiens, UniProt Q16740); details: filed as agonist, dose 100.0 µM, time 30.0 min
T1 sequence (Q16740 whole entry): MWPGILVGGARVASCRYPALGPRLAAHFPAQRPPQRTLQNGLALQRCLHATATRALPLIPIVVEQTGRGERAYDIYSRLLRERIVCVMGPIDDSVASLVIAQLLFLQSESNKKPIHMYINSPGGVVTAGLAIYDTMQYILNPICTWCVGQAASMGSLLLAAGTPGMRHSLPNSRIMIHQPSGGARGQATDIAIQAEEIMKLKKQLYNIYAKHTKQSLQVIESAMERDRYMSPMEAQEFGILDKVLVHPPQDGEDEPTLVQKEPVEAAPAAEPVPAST

[6] = target: T1, ATP-dependent Clp protease proteolytic subunit, mitochondrial; details: filed as agonist
Description: Binding affinity to human CLpP assessed as change in enthalpy by ITC method

HCT-116 [7] = details: Homo sapiens, dose 12.5-50 nM, time 14.0 day
Homo sapiens [8] = species on record: Homo sapiens; details: filed as agonist
Description: Binding affinity to human CLpP Y138F/Q107A double mutant assessed as change in entropy by ITC method

Homo sapiens [9] = species on record: Homo sapiens; details: filed as agonist; remark: listed apart in the source
Description: Binding affinity to human CLpP Y138F/Q107A double mutant assessed as change in enthalpy by ITC method

[10] = target: T1, ATP-dependent Clp protease proteolytic subunit, mitochondrial; details: filed as agonist; remark: listed apart in the source
Description: Binding affinity to human CLpP assessed as change in entropy by ITC method

[11] = MRT (0 to 24 hrs) in Sprague-Dawley rat plasma at 15 mg/kg, po after 0.25 to 24 hrs by LC-MS analysis; type: ADME, organism-based; details: time 0.25-24 hrs
[12] = Clearance in Sprague-Dawley rat plasma at 5 mg/kg, iv after 0.083 to 24 hrs by LC-MS analysis; type: ADME, organism-based; details: time 0.083-24 hrs
[13] = Cmax in Sprague-Dawley rat plasma at 15 mg/kg, po after 0.25 to 24 hrs by LC-MS analysis; type: ADME, organism-based; design: time lower 0.25 hrs, dose 15 mg/kg, time upper 24 hrs, route po
[14] = MRT (0 to 24 hrs) in Sprague-Dawley rat plasma at 5 mg/kg, iv after 0.083 to 24 hrs by LC-MS analysis; type: ADME, organism-based; details: time 0.083-24 hrs
[15] = Terminal half life in Sprague-Dawley rat plasma at 15 mg/kg, po after 0.25 to 24 hrs by LC-MS analysis; type: ADME, organism-based; details: time 0.25-24 hrs, read-out: beta t1/2 (converted)
[16] = Tmax in Sprague-Dawley rat plasma at 15 mg/kg, po after 0.25 to 24 hrs by LC-MS analysis; type: ADME, organism-based; details: time 0.25-24 hrs
[17] = Cmax in Sprague-Dawley rat plasma at 5 mg/kg, iv after 0.083 to 24 hrs by LC-MS analysis; type: ADME, organism-based; design: dose 5 mg/kg, time 0.083-24 hrs, route iv
in vivo [18] = details: Sprague-Dawley, rat, po, 15 mg/kg
[19] = Oral bioavailability in Sprague-Dawley rat plasma at 15 mg/kg after 0.25 to 24 hrs by LC-MS analysis; type: ADME, organism-based; details: time 0.25-24 hrs
in vivo [20] = details: Sprague-Dawley, rat, iv, 5 mg/kg
[21] = Terminal half life in Sprague-Dawley rat plasma at 5 mg/kg, iv after 0.083 to 24 hrs by LC-MS analysis; type: ADME, organism-based; details: time 0.083-24 hrs, read-out: beta t1/2 (converted)
[22] = Toxicity in BALB/c nude mouse xenografted with human HCT-116 cells assessed as body weight loss at 40 mg/kg, po administered twice a week for 19 days and measured every other day; type: organism-based; details: in vivo, 456 h, time 19 day
HCT-116 [23] = assay: Antitumor activity in human HCT-116 cells xenografted in BALB/c nude mouse assessed tumor growth inhibition at 5 mg/kg, po administered twice a week for 19 days and measured every other day; type: functional; details: HCT-116, 456 h, time 19 day, read-out: TGI
[24] = Acute toxicity in BALB/c mouse assessed as pathological damage in liver at 100 mg/kg, ig administered as single dose measured after 14 days by hematoxylin and eosin staining method; type: organism-based; details: in vivo, po, 336 h, time 14 day
[25] = Acute toxicity in BALB/c mouse assessed as pathological damage in spleen at 100 mg/kg, ig administered as single dose measured after 14 days by hematoxylin and eosin staining method; type: organism-based; details: in vivo, po, 336 h, time 14 day
[26] = Acute toxicity in BALB/c mouse assessed as change in AST level in blood at 100 mg/kg, ig administered as single dose measured after 14 days; type: organism-based; details: in vivo, po, 336 h, time 14 day
HCT-116 [27] = assay: Antitumor activity in human HCT-116 cells xenografted in BALB/c nude mouse assessed tumor growth inhibition at 20 mg/kg, po administered twice a week for 19 days and measured every measured every other day; type: functional; details: HCT-116, 456 h, time 19 day, read-out: TGI
[28] = Toxicity in BALB/c nude mouse xenografted with human HCT-116 cells assessed as body weight loss at 5 mg/kg, po administered twice a week for 19 days and measured every other day; type: organism-based; details: in vivo, 456 h, time 19 day
[29] = Toxicity in BALB/c nude mouse xenografted with human HCT-116 cells assessed as body weight loss at 10 mg/kg, po administered twice a week for 19 days and measured every other day; type: organism-based; details: in vivo, 456 h, time 19 day
[30] = Acute toxicity in BALB/c mouse assessed as pathological damage in lung at 100 mg/kg, ig administered as single dose measured after 14 days by hematoxylin and eosin staining method; type: organism-based; details: in vivo, po, 336 h, time 14 day
[31] = Acute toxicity in BALB/c mouse assessed as change in UREA in blood at 100 mg/kg, ig administered as single dose measured after 14 days; type: organism-based; details: in vivo, po, 336 h, time 14 day
[32] = Acute toxicity in BALB/c mouse assessed as change in ALT level in blood at 100 mg/kg, ig administered as single dose measured after 14 days; type: organism-based; details: in vivo, po, 336 h, time 14 day
[33] = Acute toxicity in BALB/c mouse assessed as pathological damage in kidney at 100 mg/kg, ig administered as single dose measured after 14 days by hematoxylin and eosin staining method; type: organism-based; details: in vivo, po, 336 h, time 14 day
[34] = Acute toxicity in BALB/c mouse assessed as body weight loss at 100 mg/kg, ig administered as single dose measured every day for 14 days; type: organism-based; details: in vivo, po, 336 h, time 14 day
[35] = Acute toxicity in BALB/c mouse assessed as change in CKMB level in blood at 100 mg/kg, ig administered as single dose measured after 14 days; type: organism-based; details: in vivo, po, 336 h, time 14 day
[36] = Acute toxicity in BALB/c mouse assessed as change in CREA level in blood at 100 mg/kg, ig administered as single dose measured after 14 days; type: organism-based; details: in vivo, po, 336 h, time 14 day
[37] = Acute toxicity in BALB/c mouse assessed as pathological damage in heart at 100 mg/kg, ig administered as single dose measured after 14 days by hematoxylin and eosin staining method; type: organism-based; details: in vivo, po, 336 h, time 14 day
[38] = Acute toxicity in BALB/c mouse assessed as adverse effect at 100 mg/kg, ig administered as single dose measured every day for 14 days; type: organism-based; details: in vivo, po, 336 h, time 14 day
HCT-116 [39] = assay: Antitumor activity in human HCT-116 cells xenografted in BALB/c nude mouse assessed tumor growth inhibition at 10 mg/kg, po administered twice a week for 19 days and measured every other day; type: functional; details: HCT-116, 456 h, time 19 day, read-out: TGI

## Cc1ccccc1CN1CCn2c1nc(=O)c1c2CCN(Cc2ccccc2)C1
[1]
  IC50 at 48 h: > 50000 nM
[2]
  IC50 at 48 h: > 50000 nM
HCT-116 [3]
  IC50: 400 nM
DLD-1
  IC50: 520 nM
U-251
  IC50: 2060 nM
Raji
  IC50: 1060 nM
HCT-15
  IC50: 1280 nM
HT-29
  IC50: 5300 nM
SW480
  IC50: 1100 nM
SW-620
  IC50: 640 nM
HCT-116 [4]
  Ratio IC50: 10
MDA-MB-231
  IC50: 10500 nM
A549
  IC50: 2140 nM

## O=c1nc2n(c3c1CN(Cc1ccccc1)CC3)CCN2Cc1ccc(F)c(Br)c1
[5]
  ΔTm: 20.9 °C
[6]
  deltaH: -14.9 kcal/mol
HCT-116 [7]
  inhibition: Active
Homo sapiens [8]
  deltaS: 54.3 J/mol.K
Homo sapiens [9]
  deltaH: -2.73 kcal/mol
[10]
  deltaS: -77.4 J/mol.K

## Cc1ccccc1CN1C(=O)C2=C(CCN(Cc3ccccc3)C2)N2CCN=C12.Cl.Cl.O
[11]
  MRT last: 87.6 min
[12]
  clearance: 42.7 mL/min/kg
[13]
  Cmax: 566 ng/mL
[14]
  MRT last: 51.6 min
[15]
  half-life: 63 min
[16]
  Tmax: 25.2 min
[17]
  Cmax: 2770 ng/mL
In vivo [18]; in vivo
  AUC(0-t): 894 ng·h/mL
[19]
  bioavailability: 15.2%
In vivo [20]; in vivo
  AUC(0-t): 1960 ng·h/mL
[21]
  half-life: 54.6 min

## Cl.Cl.O.O=c1nc2n(c3c1CN(Cc1ccccc1)CC3)CCN2Cc1ccc(F)c(Br)c1
[11]
  MRT last: 77.4 min
[12]
  clearance: 35.7 mL/min/kg
[22]
  Activity: 25%
HCT-116 [23]
  inhibition in vivo at 5 mg/kg: 56%
[24]
  Activity: Non-Toxic
[25]
  Activity: Non-Toxic
[26]
  Activity: Non-Toxic
HCT-116 [27]
  inhibition in vivo at 20 mg/kg: 69%
[13]
  Cmax: 2790 ng/mL
[28]
  Activity: 27.7%
[29]
  Activity: 23.9%
[30]
  Activity: Non-Toxic
[31]
  Activity: Non-Toxic
[32]
  Activity: Non-Toxic
[33]
  Activity: Non-Toxic
[14]
  MRT last: 33.6 min
[15]
  half-life: 61.8 min
[34]
  Activity: Non-Toxic
[16]
  Tmax: 19.8 min
[35]
  Activity: Non-Toxic
[17]
  Cmax: 4010 ng/mL
[36]
  Activity: Non-Toxic
In vivo [18]; plasma
  AUC(0-t): 4270 ng·h/mL
[19]
  bioavailability: 61.1%
In vivo [20]; plasma
  AUC(0-t): 2330 ng·h/mL
[21]
  half-life: 76.2 min
[37]
  Activity: Non-Toxic
[38]
  Activity: Non-Toxic
HCT-116 [39]
  inhibition in vivo at 10 mg/kg: 60%
